How the values were obtained:
[1] = biological target: Glycine receptor (Rattus norvegicus) (UniProt P22771+P24524+P07727+P20781); assay: Positive allosteric modulation of OFA rat embryonic ventral spinal cord neuron glycine receptor assessed as potentiation of glycine-induced chloride current at 1 to 10 uM by whole cell patch-clamp method relative to 10 uM glycine; format: protein-complex assay
[2] = biological target: T1, 5-hydroxytryptamine receptor 3A (Cavia porcellus, UniProt O70212); assay: Antagonist activity 5-HT3A receptor in guinea pig ileum assessed as inhibition of 2-methyl-5-HT induced response preincubated for 10 mins followed by agonist addition; conditions: read-out: pA2 (converted)
T1 sequence (O70212 whole entry): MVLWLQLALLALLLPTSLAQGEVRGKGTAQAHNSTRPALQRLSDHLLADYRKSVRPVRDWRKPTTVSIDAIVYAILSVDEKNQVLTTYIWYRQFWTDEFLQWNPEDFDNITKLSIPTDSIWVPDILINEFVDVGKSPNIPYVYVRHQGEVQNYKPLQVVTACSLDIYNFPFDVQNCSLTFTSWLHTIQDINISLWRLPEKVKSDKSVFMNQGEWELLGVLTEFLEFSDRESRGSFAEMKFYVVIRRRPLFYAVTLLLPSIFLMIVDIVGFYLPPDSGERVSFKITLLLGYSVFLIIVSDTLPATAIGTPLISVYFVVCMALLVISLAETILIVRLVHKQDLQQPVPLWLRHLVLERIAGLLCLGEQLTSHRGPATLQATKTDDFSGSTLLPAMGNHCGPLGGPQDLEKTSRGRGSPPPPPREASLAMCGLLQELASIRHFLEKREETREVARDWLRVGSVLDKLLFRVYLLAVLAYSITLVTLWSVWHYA

[3] = biological target: GABA-A receptor alpha-1/beta-3 (Homo sapiens) (UniProt P14867+P28472); assay: Positive allosteric modulation of recombinant human GABAA receptor alpha1beta3 expressed in Xenopus oocytes assessed as potentiation of GABA induced chloride current response relative to GABA; format: cell-based
[4] = biological target: Gamma-aminobutyric acid receptor subunit alpha-2/beta-3 (Homo sapiens) (UniProt P28472+P47869); assay: Positive allosteric modulation of recombinant human GABAA receptor alpha2beta3 expressed in Xenopus oocytes assessed as potentiation of GABA induced chloride current response relative to GABA; format: cell-based
[5] = biological target: Gamma-aminobutyric acid receptor subunit alpha-3/beta-3 (Homo sapiens) (UniProt P28472+P34903); assay: Positive allosteric modulation of recombinant human GABAA receptor alpha3beta3 expressed in Xenopus oocytes assessed as potentiation of GABA induced chloride current response relative to GABA; format: cell-based
[6] = biological target: Gamma-aminobutyric acid receptor subunit alpha-5/beta-3 (Homo sapiens) (UniProt P28472+P31644); assay: Positive allosteric modulation of recombinant human GABAA receptor alpha5beta3 expressed in Xenopus oocytes assessed as potentiation of GABA induced chloride current response relative to GABA; format: cell-based
[7] = biological target: GABA-A receptor; alpha-1/beta-3/gamma-2 (Homo sapiens) (UniProt P14867+P18507+P28472); assay: Positive allosteric modulation of recombinant human GABAA receptor alpha1beta3gamma2 expressed in Xenopus oocytes assessed as potentiation of GABA induced chloride current response relative to 10 uM GABA; format: cell-based
[8] = biological target: GABA-A receptor; alpha-2/beta-3/gamma-2 (Homo sapiens) (UniProt P18507+P28472+P47869); assay: Positive allosteric modulation of recombinant human GABAA receptor alpha2beta3gamma2 expressed in Xenopus oocytes assessed as potentiation of GABA induced chloride currents relative to 10 uM GABA; format: cell-based
[9] = biological target: GABA-A receptor; alpha-3/beta-3/gamma-2 (Homo sapiens) (UniProt P18507+P28472+P34903); assay: Positive allosteric modulation of recombinant human GABAA receptor alpha3beta3gamma2 expressed in Xenopus oocytes assessed as potentiation of GABA induced chloride currents relative to 10 uM GABA; format: cell-based
[10] = biological target: GABA A receptor alpha-4/beta-3/gamma-2 (Homo sapiens, UniProt P18507+P28472+P48169); assay: Positive allosteric modulation of recombinant human GABAA receptor alpha4beta3gamma2 expressed in Xenopus oocytes assessed as potentiation of GABA induced chloride currents relative to 10 uM GABA; format: cell-based
[11] = biological target: GABA-A receptor; alpha-5/beta-3/gamma-2 (Homo sapiens) (UniProt P18507+P28472+P31644); assay: Positive allosteric modulation of recombinant human GABAA receptor alpha5beta3gamma2 expressed in Xenopus oocytes assessed as potentiation of GABA induced chloride currents relative to 10 uM GABA; format: cell-based
[12] = biological target: GABA-A receptor; alpha-6/beta-3/gamma-2 (Homo sapiens) (UniProt P18507+P28472+Q16445); assay: Positive allosteric modulation of recombinant human GABAA receptor alpha6beta3gamma2 expressed in Xenopus oocytes assessed as potentiation of GABA induced chloride currents relative to 10 uM GABA; format: cell-based
[13] = biological target: T2, Glycine receptor subunit alpha-1 (Homo sapiens) (UniProt P23415); conditions: HEK293, 30 uM
T2 sequence (whole entry): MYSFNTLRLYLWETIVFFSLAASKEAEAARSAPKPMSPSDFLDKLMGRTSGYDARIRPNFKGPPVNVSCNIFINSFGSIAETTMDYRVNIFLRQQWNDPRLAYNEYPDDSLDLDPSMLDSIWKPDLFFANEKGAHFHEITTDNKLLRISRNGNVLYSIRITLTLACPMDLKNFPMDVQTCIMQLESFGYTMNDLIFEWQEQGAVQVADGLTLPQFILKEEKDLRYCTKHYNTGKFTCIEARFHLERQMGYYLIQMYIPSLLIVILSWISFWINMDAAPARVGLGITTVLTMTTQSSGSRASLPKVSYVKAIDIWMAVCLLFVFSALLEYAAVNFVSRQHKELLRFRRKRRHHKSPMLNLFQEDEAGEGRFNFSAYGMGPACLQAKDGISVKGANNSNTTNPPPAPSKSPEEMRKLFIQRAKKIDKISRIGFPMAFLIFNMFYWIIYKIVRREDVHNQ
Description: Positive allosteric modulation of recombinant human glycine receptor alpha1 expressed in HEK293 cells assessed as increase in glycine-induced current at 30 uM at -60 mV holding potential measured for 1 to 2 secs for every 60 secs by whole cell patch-clamp method relative to glycine

[14] = biological target: Gamma-aminobutyric acid receptor subunit alpha-1/beta-2 (Rattus norvegicus) (UniProt P62813+P63138); conditions: HEK293, 30 uM
Description: Positive allosteric modulation of recombinant rat GABAA receptor alpha1beta2 expressed in HEK293 cells assessed as increase in GABA-induced current at 30 uM at -100 mV holding potential measured for 1 to 2 secs for every 60 secs by whole cell patch-clamp method relative to GABA

[15] = biological target: Nicotinic acetylcholine receptor alpha2/beta2 (Homo sapiens, UniProt P02708+P17787); assay: Positive allosteric modulation of human alpha2beta2 nAChR expressed in HEK cells preincubated for 15 mins followed by dihydro-beta-erythroidine hydrobromide addition by fluorometric analysis; format: cell-based
Nicotinic acetylcholine receptor alpha2/beta2, sequence (P02708 whole entry): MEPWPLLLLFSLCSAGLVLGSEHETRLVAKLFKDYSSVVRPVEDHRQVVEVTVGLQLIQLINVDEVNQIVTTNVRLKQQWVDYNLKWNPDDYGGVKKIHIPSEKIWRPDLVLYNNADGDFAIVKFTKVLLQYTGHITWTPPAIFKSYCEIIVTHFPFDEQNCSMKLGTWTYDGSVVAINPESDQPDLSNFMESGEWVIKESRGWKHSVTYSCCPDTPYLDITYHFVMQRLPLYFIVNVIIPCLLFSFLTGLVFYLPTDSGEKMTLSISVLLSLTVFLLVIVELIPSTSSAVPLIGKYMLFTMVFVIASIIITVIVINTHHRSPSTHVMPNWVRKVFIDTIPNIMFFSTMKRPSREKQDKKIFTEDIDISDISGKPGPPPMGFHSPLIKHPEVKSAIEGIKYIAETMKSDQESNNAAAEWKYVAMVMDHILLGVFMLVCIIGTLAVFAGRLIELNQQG
Nicotinic acetylcholine receptor alpha2/beta2, sequence (P17787 whole entry): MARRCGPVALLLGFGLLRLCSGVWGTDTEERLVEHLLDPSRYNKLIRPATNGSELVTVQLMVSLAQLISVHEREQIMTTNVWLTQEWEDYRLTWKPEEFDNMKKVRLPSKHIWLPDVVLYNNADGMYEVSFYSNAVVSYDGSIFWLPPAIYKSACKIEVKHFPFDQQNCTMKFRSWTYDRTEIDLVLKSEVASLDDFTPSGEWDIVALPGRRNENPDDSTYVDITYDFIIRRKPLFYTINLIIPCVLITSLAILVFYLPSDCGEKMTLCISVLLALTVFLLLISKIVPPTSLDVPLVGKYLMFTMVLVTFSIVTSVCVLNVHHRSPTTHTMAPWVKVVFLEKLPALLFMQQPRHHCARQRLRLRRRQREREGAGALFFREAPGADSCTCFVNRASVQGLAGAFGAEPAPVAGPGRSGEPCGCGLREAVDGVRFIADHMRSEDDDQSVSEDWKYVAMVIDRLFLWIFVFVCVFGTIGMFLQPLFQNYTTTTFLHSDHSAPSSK

[16] = biological target: Nicotinic acetylcholine receptor alpha2/beta4 (Homo sapiens, UniProt P02708+P30926); assay: Positive allosteric modulation of human alpha2beta4 nAChR expressed in HEK cells preincubated for 15 mins followed by dihydro-beta-erythroidine hydrobromide addition by fluorometric analysis; format: cell-based
Nicotinic acetylcholine receptor alpha2/beta4, sequence (P02708 whole entry): as the sequence (P02708 whole entry) above
Nicotinic acetylcholine receptor alpha2/beta4, sequence (P30926 whole entry): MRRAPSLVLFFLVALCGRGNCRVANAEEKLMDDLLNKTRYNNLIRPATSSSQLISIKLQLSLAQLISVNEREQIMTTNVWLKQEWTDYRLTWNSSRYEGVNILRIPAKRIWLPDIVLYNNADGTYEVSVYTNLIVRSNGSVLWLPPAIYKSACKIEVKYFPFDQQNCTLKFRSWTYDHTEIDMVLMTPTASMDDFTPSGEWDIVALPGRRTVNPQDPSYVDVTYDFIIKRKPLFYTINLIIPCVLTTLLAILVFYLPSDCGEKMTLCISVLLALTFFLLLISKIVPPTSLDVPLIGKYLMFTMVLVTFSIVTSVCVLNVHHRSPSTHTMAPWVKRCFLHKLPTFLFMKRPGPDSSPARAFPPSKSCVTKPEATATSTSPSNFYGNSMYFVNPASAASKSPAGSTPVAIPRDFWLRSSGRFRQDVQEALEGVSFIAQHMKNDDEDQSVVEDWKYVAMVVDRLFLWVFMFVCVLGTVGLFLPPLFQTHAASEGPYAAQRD

[17] = biological target: T3, Neuronal acetylcholine receptor; alpha4/beta2 (Homo sapiens, UniProt P17787+P43681); assay: Positive allosteric modulation of human alpha4beta2 nAChR expressed in HEK cells preincubated for 15 mins followed by dihydro-beta-erythroidine hydrobromide addition by fluorometric analysis; format: cell-based
T3 sequence (P17787 whole entry): as the sequence (P17787 whole entry) above
T3 sequence (P43681 whole entry): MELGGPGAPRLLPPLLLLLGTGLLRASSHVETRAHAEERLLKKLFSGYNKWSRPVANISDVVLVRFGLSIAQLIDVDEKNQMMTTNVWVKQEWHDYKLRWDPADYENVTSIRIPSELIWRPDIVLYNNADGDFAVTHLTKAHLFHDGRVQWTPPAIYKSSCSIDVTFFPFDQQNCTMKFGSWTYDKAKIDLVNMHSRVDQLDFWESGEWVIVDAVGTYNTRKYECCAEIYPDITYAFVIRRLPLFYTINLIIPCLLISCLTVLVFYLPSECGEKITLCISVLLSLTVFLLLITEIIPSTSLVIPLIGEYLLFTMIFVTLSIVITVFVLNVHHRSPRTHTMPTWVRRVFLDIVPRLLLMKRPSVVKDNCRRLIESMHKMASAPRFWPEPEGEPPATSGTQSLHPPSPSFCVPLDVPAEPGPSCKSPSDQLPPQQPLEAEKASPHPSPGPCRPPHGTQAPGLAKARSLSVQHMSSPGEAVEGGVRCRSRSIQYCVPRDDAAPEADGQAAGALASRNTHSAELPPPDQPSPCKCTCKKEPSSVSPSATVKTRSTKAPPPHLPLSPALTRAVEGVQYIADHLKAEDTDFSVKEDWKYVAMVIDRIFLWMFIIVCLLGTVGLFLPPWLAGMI

[18] = biological target: Neuronal acetylcholine receptor; alpha4/beta4 (Homo sapiens, UniProt P30926+P43681); assay: Positive allosteric modulation of human alpha4beta4 nAChR expressed in HEK cells preincubated for 15 mins followed by dihydro-beta-erythroidine hydrobromide addition by fluorometric analysis; format: cell-based
Neuronal acetylcholine receptor; alpha4/beta4, sequence (P30926 whole entry): as the sequence (P30926 whole entry) above
Neuronal acetylcholine receptor; alpha4/beta4, sequence (P43681 whole entry): as the sequence (P43681 whole entry) above

[19] = Positive allosteric modulation of human (alpha4beta2)2alpha4 nAChR expressed in HEK cells preincubated for 15 mins followed by dihydro-beta-erythroidine hydrobromide addition by fluorometric analysis; format: cell-based; conditions: HEK293
[20] = biological target: T3, Neuronal acetylcholine receptor; alpha4/beta2; assay: Positive allosteric modulation of human (alpha4beta2)2beta2 nAChR expressed in HEK cells preincubated for 15 mins followed by dihydro-beta-erythroidine hydrobromide addition by fluorometric analysis; format: cell-based
[21] = biological target: T4, 5-hydroxytryptamine receptor 3A (Homo sapiens, UniProt P46098); assay: Displacement of [3H]granisetron from human 5-HT3A receptor expressed in HEK293 cells by scintillation counting method; format: cell-based
T4 sequence (P46098 whole entry): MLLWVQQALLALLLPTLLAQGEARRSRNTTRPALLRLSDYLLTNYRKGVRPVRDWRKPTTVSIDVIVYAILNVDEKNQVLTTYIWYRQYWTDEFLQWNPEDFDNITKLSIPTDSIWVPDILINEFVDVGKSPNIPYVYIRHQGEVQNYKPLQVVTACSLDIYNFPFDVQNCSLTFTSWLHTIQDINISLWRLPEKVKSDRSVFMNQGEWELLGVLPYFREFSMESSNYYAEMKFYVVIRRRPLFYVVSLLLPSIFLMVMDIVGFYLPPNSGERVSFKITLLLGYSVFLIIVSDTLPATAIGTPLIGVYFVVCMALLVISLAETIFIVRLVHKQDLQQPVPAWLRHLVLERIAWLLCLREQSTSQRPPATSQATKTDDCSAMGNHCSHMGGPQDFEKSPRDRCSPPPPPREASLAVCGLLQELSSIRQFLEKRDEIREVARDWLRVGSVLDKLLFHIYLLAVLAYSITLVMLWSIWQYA

[22] = biological target: T5, Serotonin 3 (5-HT3) receptor (Homo sapiens, UniProt O95264+P46098); assay: Displacement of [3H]granisetron from human 5-HT3AB receptor expressed in HEK293 cells by scintillation counting method; format: cell-based
T5 sequence (P46098 whole entry): T4 sequence (P46098 whole entry)
T5 sequence (O95264 whole entry): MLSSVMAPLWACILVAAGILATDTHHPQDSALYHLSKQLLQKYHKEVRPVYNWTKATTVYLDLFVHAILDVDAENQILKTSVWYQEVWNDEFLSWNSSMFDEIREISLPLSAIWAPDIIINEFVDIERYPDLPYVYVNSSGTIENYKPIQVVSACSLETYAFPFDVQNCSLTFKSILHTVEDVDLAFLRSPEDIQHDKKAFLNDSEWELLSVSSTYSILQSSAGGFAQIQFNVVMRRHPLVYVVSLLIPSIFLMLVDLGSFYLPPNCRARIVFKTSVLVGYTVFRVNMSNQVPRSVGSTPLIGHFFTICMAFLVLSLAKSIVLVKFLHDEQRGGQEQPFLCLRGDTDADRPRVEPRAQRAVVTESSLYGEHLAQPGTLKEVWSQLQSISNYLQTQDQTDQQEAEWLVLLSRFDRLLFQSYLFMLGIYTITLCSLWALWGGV

[23] = biological target: T6, Glycine receptor subunit alpha-1 (Homo sapiens, UniProt P23415); assay: Positive allosteric modulation of human glycine alpha1 receptor expressed in HEK293T cells assessed as glycine-induced increase incurrent response after 18 to 24 hrs by membrane potential blue dye based FLIPR assay; format: cell-based
T6 sequence (P23415 whole entry): T2 sequence (whole entry)

[24] = biological target: Glycine receptor (alpha-1/beta) (Homo sapiens, UniProt P23415+P48167); assay: Positive allosteric modulation of human glycine alpha1beta receptor expressed in HEK293T cells assessed as glycine-induced increase in current response after 18 to 24 hrs by membrane potential blue dye based FLIPR assay; format: cell-based
Glycine receptor (alpha-1/beta), sequence (P48167 whole entry, one chain of several): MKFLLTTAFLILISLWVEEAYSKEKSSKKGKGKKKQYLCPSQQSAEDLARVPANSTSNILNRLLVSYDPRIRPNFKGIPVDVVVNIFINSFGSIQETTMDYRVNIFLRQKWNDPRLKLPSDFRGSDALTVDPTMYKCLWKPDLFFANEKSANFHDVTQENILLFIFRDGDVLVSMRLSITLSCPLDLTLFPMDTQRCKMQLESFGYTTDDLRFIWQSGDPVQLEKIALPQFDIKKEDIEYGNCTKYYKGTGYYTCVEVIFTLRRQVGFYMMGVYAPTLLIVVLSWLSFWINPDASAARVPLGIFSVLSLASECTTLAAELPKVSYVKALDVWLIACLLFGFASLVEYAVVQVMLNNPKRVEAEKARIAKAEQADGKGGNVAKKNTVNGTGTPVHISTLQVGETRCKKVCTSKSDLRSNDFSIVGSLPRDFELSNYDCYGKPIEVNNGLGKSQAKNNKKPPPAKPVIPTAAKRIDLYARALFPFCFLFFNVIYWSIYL

[25] = biological target: T7, Glycine receptor alpha-3/beta (Homo sapiens, UniProt O75311+P48167); assay: Positive allosteric modulation of human glycine alpha3beta receptor expressed in HEK293T cells assessed as glycine-induced increase in current response after 18 to 24 hrs by membrane potential blue dye based FLIPR assay; format: cell-based
T7 sequence (O75311 whole entry): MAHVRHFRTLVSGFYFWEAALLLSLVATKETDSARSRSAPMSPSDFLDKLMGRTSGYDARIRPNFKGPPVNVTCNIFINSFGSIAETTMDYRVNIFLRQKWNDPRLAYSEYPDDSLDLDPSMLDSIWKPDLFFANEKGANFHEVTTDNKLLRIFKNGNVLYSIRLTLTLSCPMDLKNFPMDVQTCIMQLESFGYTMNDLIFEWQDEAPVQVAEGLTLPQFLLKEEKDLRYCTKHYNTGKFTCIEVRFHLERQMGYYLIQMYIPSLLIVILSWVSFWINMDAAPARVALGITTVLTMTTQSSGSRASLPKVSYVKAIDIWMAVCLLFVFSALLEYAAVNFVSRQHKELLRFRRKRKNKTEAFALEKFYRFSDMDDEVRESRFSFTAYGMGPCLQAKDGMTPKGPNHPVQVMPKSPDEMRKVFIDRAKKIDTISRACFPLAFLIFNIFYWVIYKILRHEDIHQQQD
T7 sequence (P48167 whole entry): as the sequence (P48167 whole entry, one chain of several) above

[26] = biological target: T7, Glycine receptor alpha-3/beta; assay: Positive allosteric modulation of human glycine alpha3beta receptor expressed in HEK293T cells assessed as potentiation of glycine-induced increase in current response after 18 to 24 hrs by membrane potential blue dye based FLIPR assay relative to glycine; format: cell-based

Glycine receptor (Rattus norvegicus), sequence (P07727 whole entry, looked up): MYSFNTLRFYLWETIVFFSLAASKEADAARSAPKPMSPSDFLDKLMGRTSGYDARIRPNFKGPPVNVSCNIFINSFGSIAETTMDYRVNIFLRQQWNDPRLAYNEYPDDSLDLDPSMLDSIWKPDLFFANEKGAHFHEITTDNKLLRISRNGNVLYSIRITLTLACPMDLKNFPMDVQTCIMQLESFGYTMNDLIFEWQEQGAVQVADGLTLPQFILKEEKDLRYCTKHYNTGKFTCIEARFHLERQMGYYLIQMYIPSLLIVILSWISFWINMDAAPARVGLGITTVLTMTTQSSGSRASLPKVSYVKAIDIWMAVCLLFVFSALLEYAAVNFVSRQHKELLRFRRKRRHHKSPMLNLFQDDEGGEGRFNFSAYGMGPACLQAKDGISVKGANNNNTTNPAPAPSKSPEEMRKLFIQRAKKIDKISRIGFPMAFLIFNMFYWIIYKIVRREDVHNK
Glycine receptor (Rattus norvegicus), sequence (P20781 whole entry, looked up): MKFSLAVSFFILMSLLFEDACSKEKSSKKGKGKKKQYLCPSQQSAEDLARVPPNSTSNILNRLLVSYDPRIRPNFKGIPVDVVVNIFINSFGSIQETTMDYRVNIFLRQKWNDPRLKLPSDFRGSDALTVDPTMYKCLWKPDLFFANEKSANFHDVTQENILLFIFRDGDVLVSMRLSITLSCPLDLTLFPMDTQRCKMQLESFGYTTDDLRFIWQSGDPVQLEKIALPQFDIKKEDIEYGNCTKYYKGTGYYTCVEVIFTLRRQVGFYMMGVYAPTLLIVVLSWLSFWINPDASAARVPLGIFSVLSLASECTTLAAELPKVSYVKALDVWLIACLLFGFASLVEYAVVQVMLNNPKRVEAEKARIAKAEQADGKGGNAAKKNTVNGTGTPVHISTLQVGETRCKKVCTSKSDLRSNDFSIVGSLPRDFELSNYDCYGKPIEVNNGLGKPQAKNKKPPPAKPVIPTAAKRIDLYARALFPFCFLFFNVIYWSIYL
Glycine receptor (Rattus norvegicus), sequence (P22771 whole entry, looked up): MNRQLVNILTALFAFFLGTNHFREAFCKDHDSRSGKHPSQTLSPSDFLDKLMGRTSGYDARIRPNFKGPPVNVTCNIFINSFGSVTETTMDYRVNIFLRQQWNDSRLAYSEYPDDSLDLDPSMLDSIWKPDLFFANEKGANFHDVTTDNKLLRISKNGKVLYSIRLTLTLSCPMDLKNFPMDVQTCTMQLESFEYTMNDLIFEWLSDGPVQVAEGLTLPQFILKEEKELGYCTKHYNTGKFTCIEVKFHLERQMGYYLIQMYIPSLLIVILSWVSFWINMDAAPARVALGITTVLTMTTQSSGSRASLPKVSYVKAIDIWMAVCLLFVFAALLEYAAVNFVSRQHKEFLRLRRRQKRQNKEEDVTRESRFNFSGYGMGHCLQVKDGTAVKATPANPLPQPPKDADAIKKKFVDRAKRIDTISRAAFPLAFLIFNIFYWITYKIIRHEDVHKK
Glycine receptor (Rattus norvegicus), sequence (P24524 whole entry, looked up): as the sequence (O75311 whole entry) above, with V11L, D32N, M372T, F381L, M398V, T399V, P406A, P414A, Q461H counted along it

CN1[C@@H]2CC[C@H]1C[C@@H](NC(=O)c1nn(C)c3ccccc13)C2
fold change (FC) [1]: 1.73

COc1nc2ccccc2nc1C(=O)Nc1ccc(C)cc1
Kb [2]: 50.1 nM

O=C1C=C[C@H]([C@H]2c3cccc([N+](=O)[O-])c3C=CN2C(=O)OCc2ccccc2)O1
fold change (FC) [3]: 1.4 | fold change (FC) [4]: 1.8 | fold change (FC) [5]: 1.4 | fold change (FC) [6]: 1.4 | fold change (FC) [7]: 2.6 | fold change (FC) [8]: 2.1 | fold change (FC) [9]: 2.9 | fold change (FC) [10]: 1.4 | fold change (FC) [11]: 1.4 | fold change (FC) [12]: 2.9

CC(C)c1cccc(C(C)C)c1O
Emax [13]: 189% | Emax [14]: 279%

O=C(N[C@@H]1CCCNC1)c1cc2cccc(Br)c2s1
EC50 [15]: 660 nM | EC50 [16]: 286 nM | EC50 [17]: 446 nM | EC50 [18]: 237 nM | EC50 [19]: 165 nM | EC50 [20]: 275 nM

CN1CCN(c2nc3ccccc3nc2Cl)CC1
Ki [21]: 0.04 nM | Ki [22]: 22 nM

O=C(c1cnc2ccccc2n1)N1CCN(Cc2ccccc2)CC1
Kb [2]: 15.8 nM

CN1C(=O)[C@@H]2CN(S(=O)(=O)c3ccc4occc4c3)C[C@@H]2c2cnccc21
EC50 [23]: 327 nM | EC50 [24]: 171 nM | EC50 [25]: 330 nM | fold change (FC) [26]: 16

— ChEMBL document CHEMBL4219030, “Progress in the discovery of small molecule modulators of the Cys-loop superfamily receptors” (Bioorg Med Chem Lett, 2017)
